Reference: ChEMBL document CHEMBL6092197, “Novel benzenesulfonamide-aroylhydrazone conjugates as carbonic anhydrase inhibitors that induce MAPK/ERK-mediated cell cycle arrest and mitochondrial-associated apoptosis in MCF-7 breast cancer cells” (Bioorg Med Chem, 2024)
pIC50, pKi: −log10 of the molar value.

Experiments:
Carbonic anhydrase 1 = Carbonic anhydrase 1 (Homo sapiens, UniProt P00915); test: Inhibition of human carbonic anhydrase I assessed as inhibition constant incubated for 15 mins by stopped flow CO2-hydrase assay
Carbonic anhydrase 2 = Carbonic anhydrase 2 (Homo sapiens, UniProt P00918); test: Inhibition of human carbonic anhydrase II assessed as inhibition constant incubated for 15 mins by stopped flow CO2-hydrase assay
Carbonic anhydrase 9 = Carbonic anhydrase 9 (Homo sapiens, UniProt Q16790); test: Inhibition of human carbonic anhydrase IX assessed as inhibition constant incubated for 15 mins by stopped flow CO2-hydrase assay
Carbonic anhydrase 12 = Carbonic anhydrase 12 (Homo sapiens, UniProt O43570); test: Inhibition of human carbonic anhydrase XII assessed as inhibition constant incubated for 15 mins by stopped flow CO2-hydrase assay
[1] = Selectivity index, ratio of IC50 for human HaCaT cells to IC50 for human HCT-116 cells; format: toxicity; conditions: HaCaT cells versus HCT-116 cells, read-out: Ratio IC50
[2] = Selectivity index, ratio of IC50 for human HaCaT cells to IC50 for human HeLa cells; format: toxicity; conditions: HaCaT cells versus HeLa cells, read-out: Ratio IC50
[3] = Selectivity index, ratio of IC50 for human HaCaT cells to IC50 for human MCF7 cells; format: toxicity; conditions: HaCaT cells versus MCF7 cells, read-out: Ratio IC50
HCT-116 = test: cells; conditions: Homo sapiens, HCT-116, 72 h
Description: Antiproliferative activity against human HCT-116 cells assessed as reduction in cell proliferation incubated for 72 hrs by MTT assay

HeLa = test: cells; conditions: Homo sapiens, 72 h
Description: Antiproliferative activity against human HeLa cells assessed as reduction in cell proliferation incubated for 72 hrs by MTT assay

MCF7 [4] = test: cells; conditions: Homo sapiens, MCF7, 72 h
Description: Antiproliferative activity against human MCF7 cells assessed as reduction in cell proliferation incubated for 72 hrs by MTT assay

in vitro = conditions: human, HaCaT cells
Description: Cytotoxicity against human HaCaT cells assessed as reduction in cell proliferation incubated for 72 hrs by MTT assay

MCF7 [5] = test: Antiproliferative activity against human MCF7 cells assessed as reduction in cell proliferation incubated for 24 hrs by MTT assay; format: functional, cell-based; conditions: MCF7, 24 h
MCF7 [6] = test: Antiproliferative activity against human MCF7 cells assessed as reduction in cell proliferation incubated for 48 hrs by MTT assay; format: functional, cell-based; conditions: MCF7, 48 h
MCF7 [7] = test: Inhibition of colony formation in human MCF7 cells assessed as reduction in colony formation at […] preincubated with compound for 24 hrs followed by replacement with DMEM medium and measured after 2 weeks by crystal violet staining based analysis relative to control; format: functional; conditions: dose 2.5 µM
MCF7 [8] = test: Inhibition of colony formation in human MCF7 cells assessed as reduction in colony formation at 5 uM preincubated with compound for 24 hrs followed by replacement with DMEM medium and measured after 2 weeks by crystal violet staining based analysis relative to control; format: functional
MCF7 [9] = test: Induction of apoptosis in human MCF7 cells assessed as total apoptotic cells at 10 uM incubated for 72 hrs by Annexin V-PE/7-AAD staining based flow cytometric analysis relative to control; format: functional
MCF7 [10] = test: Induction of apoptosis in human MCF7 cells assessed as increase in caspase activity at 10 uM preincubated for 48 hrs followed by carboxyfluorescein-labeled fluoro-methyl ketone peptide addition and measured after 1 hrs by fluorescence based analysis relative to control; format: functional
MCF7 [11] = test: Effect on apoptosis in human MCF7 cells assessed as fold decrease in apoptotic cells at 10 uM preincubated with U0126 for 1 hrs followed by compound addition and measured after 72 hrs by Annexin V-PE/7-AAD staining based flow cytometric analysis; format: functional

Carbonic anhydrase 12, sequence (O43570 whole entry): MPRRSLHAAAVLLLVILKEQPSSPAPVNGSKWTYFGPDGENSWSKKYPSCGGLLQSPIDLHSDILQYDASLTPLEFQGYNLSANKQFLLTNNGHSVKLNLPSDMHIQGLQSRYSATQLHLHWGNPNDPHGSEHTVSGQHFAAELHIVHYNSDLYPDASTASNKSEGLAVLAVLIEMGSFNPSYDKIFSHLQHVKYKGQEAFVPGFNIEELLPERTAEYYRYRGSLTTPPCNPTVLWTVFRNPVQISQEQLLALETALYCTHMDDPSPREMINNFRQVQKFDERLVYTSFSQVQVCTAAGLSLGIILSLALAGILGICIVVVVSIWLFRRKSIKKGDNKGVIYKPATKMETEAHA
Carbonic anhydrase 1, sequence (P00915 whole entry): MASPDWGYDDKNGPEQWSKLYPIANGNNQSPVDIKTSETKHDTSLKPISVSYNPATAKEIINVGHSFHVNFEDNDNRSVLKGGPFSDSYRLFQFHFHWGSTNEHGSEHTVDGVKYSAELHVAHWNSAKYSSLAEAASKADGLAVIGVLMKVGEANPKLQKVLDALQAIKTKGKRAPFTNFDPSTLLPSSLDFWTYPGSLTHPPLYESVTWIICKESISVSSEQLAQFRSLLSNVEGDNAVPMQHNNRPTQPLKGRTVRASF

pKi (Carbonic anhydrase 1)	pKi (Carbonic anhydrase 2)	pKi (Carbonic anhydrase 9)	pKi (Carbonic anhydrase 12)	pIC50 (HCT-116)	pIC50 (HeLa)	pIC50 (MCF7 [4])	IC50 at 72 h (in vitro)	pIC50 (MCF7 [5])	pIC50 (MCF7 [6])	Compound	selectivity ratio [1]	selectivity ratio [2]	selectivity ratio [3]	inhibition at […] (MCF7 [7])	inhibition at 5 µM (MCF7 [8])	Activity (MCF7 [9])	Activity (MCF7 [10])	fold change (FC) (MCF7 [11])
7.09	7.25	7.10	7.10	4.94	4.55	4.60	32 µM			NS(=O)(=O)c1cc(C(=O)N/N=C/c2ccc(O)cc2O)c(SCc2ccc(F)cc2)cc1Cl	2.9	1.1	1.2					
6.27	6.19	6.07	6.16	5.22	4.74	5.22	33 µM	4.05	5.22	NS(=O)(=O)c1cc(C(=O)N/N=C/c2ccc(Br)cc2O)c(SCc2ccc(F)cc2)cc1Cl	5.5	1.8	5.5	65%	80%	60%	30%	2.2

Continued, compound first:

Compound	pKi (Carbonic anhydrase 1)	pKi (Carbonic anhydrase 2)	pKi (Carbonic anhydrase 9)	pKi (Carbonic anhydrase 12)	pIC50 (HCT-116)	pIC50 (HeLa)	pIC50 (MCF7 [4])	IC50 at 72 h (in vitro)	pIC50 (MCF7 [5])	pIC50 (MCF7 [6])	selectivity ratio [1]	selectivity ratio [2]	selectivity ratio [3]	inhibition at […] (MCF7 [7])	inhibition at 5 µM (MCF7 [8])	Activity (MCF7 [9])	Activity (MCF7 [10])	fold change (FC) (MCF7 [11])
NNC(=O)c1cc(S(N)(=O)=O)c(Cl)cc1SCc1ccc(F)cc1					4.74	4.44	4.62	65 µM			3.6	1.8	2.7					
NS(=O)(=O)c1cc(C(=O)N/N=C/c2ccc(O)cc2O)c(SCc2ccccc2)cc1Cl	6.84	7.31	7.24	7.25	4.85	4.54	4.66	58 µM			4.1	2	2.6					
NNC(=O)c1cc(S(N)(=O)=O)c(Cl)cc1SCc1ccccc1					3.81	3.46	3.98											
NS(=O)(=O)c1cc(C(=O)N/N=C/c2ccc(Br)cc2O)c(SCc2ccccc2)cc1Cl	6.48	7.39	7.07	7.09		4.80	5.40		4.01	5.22		2	8.2	80%	85%	65%	30%	2
